In patent US20140093555A1, “PATCH PREPARATION CONTAINING AMINE OXIDE” (Nitto Denko Corporation, priority 2012, published 2014):

System: skin isolated from a hairless mouse
Assay: Skin permeability test (patch on isolated hairless mouse skin, permeation cell, PBS(-) receptor, HPLC)
Format: in vitro ADME
Settings: statement in words, Tables 3 and 4
Description: To examine transdermal absorbability of the drug, the obtained patch preparation was subjected to a skin permeability test.
A patch preparation was cut into a circle having a diameter of 6 mmφ, adhered to the stratum corneum side of a skin isolated from a hairless mouse, mounted on a cell for skin permeation experiment (effective area 9 mmφ) such that the dermic layer side was a receptor phase, and a skin permeation experiment was conducted. As a receptor solution, a deaerated PBS(−) solution (phosphate buffered saline) was used.

## CCOC(=O)C1=C(COCCN)NC(C)=C(C(=O)OC)C1c1ccccc1Cl (stereo not shown) [amlodipine besilate]
  skin permeability of the drug: low skin permeability
